The structures appear in SMILES notation.

The molecule `CCOc1ccc2[nH]cc(C(=O)NCC3CCCO3)c(=O)c2n1` (stereo not shown) [Compound 4, N-(2-Tetrahydrofuranyl)methyl 6-ethoxy-4-oxo-1,4-tetrahydro-1,5-naphthyridine-3-carboxamide] had a melting point of 235 to 237 °C.

Molecule `CCOc1ccc2[nH]cc(C(=O)NCc3ccc4c(c3)OCO4)c(=O)c2n1` [Compound 9, N-Piperonyl 6-ethoxy-4-oxo-1,4-tetrahydro-1,5-naphthyridine-3-carboxamide] returned a melting point of 190 °C.

Consider `CCSCCNC(=O)c1c[nH]c2ccc(OC)nc2c1=O` [Compound 5, N-[2-(ethylthio)ethyl] 6-methoxy-4-oxo-1,4-dihydro-1,5-napththyridine-3-carboxamide], for which the melting point is 257 to 259 °C (dec.).

The molecule `O=C(NCc1ccccc1F)c1c[nH]c2ccc(N3CCOCC3)nc2c1=O` [Compound 7, N-(2-Fluorobenzyl) 6-morpholino-4-oxo-1,4-tetrahydro-1,5-naphthyridine-3-carboxamide] displayed a melting point of 137 to 139 °C.
